Tests used:
[1] = system: EBV-associated cell lines (nasopharyngeal and gastric cancer cell lines); assay: MTS cell viability assay, IC50 of inhibitors; assay type: cell-based
Protocol: FIG. 9: Determining the IC50 value of MEK1/2 inhibitors. Representation of the cell viability performed using MTS assay after the indicated cell lines were incubated with 0.1 μM-5 μM of selumatinib (left panel) and trametinib (right panel) for 48 hours. The data are represented as the mean±SD from three independent experiments.
FIG. 14: Determining the IC50 value of JQ1 inhibitors. Representation of the cell viability performed using MTS assay after the indicated cell lines were incubated with 0.5 μM-10 μM of JQ1 for 48 hours. The data are represented as the mean±SD from three independent experiments.
Cell viability assay was performed using the CellTiter 96® AQueous one cell viability assay reagent (Promega, WI, USA) for three biological replicates per EBV-associated cancer cell lines in triplicate. Briefly, the cancer cells (target cells) were plated at a density of 5000 cells per well in an overall media volume of 200 μL on a 96-well tissue-culture plate (BD Falcon™). The effector AdE1-LMPpoly transfected T cells were freshly thawed in RPMI-1640 with 10% FCS and 120 IU/mL of recombinant IL-2 at 37° C. and […]. Post 24 hrs of plating and incubation at 37° C. and […], the effector T cells were mixed to the target cells at a gradient ratio of effector to target (E:T) of 5:1-100:1. The exact number of T cells (To) used per E:T ratio (ET) was independently used as control alongside PBS treated target cells (Es) and sole media (M0). After 24 hrs of incubation at 37° C. and […], MTS was added to each well (1:100 dilution in media) and was incubated for 1 hour following which the plate was centrifuged at 1,200×g at room temperature for 5 min and absorbance of the mixture at an optical density of 490 nm was measured via a microplate reader. The relative cell viability was calculated using the following formula: […]
To determine the upregulation of MAPK pathway in EBV-associated solid cancers, we first identified the IC50 value of MEK1/2 inhibitors (AZD6244 or selumetanib and trematinib) across nasopharyngeal and gastric cancer cell lines (with drug concertation ranging from 0.1 μM-5 μM). […] In the next set of experiments, we wanted to determine the impact of MEK1/2 inhibition in combination with allogeneic EBV-specific T cells on EBV-associated solid cancers. As such, we treated the respective EBV-associated cell lines (both gastric and nasopharyngeal) individually or in combination with MEK1/2 inhibitors (both selumetanib and trematinib) and EBV-specific T cells.
Similarly, we targeted MYC-dependent cancer intrinsic pathway using JQ1 inhibitor by first determining the IC50 value of the inhibitor across nasopharyngeal and gastric cancer cell lines (with drug concertation ranging from 0.5 μM-10 μM). […] To characterized the impact of JQ1 inhibition in combination with allogeneic EBV-specific T cells on EBV-associated cancer cells, we used IC25 value JQ1 (2.5 μM) alongside an effector to target ratio of 25:1 of the respective HLA matched allogeneic EBV-specific T cells in vitro. […] We also performed phenotypic characterization, using flow cytometry, of SNU719 and C666.1 cells after 16 hours of individual and dual treatment in vitro.

[2] = system: SNU719 gastric cancer xenograft; assay: SNU719 xenograft, anti-PD1 and allogenic EBV-specific T cells in vivo; design: species or system NOD/SCID mice
From the text: FIG. 6: Impact of PD1 inhibition on therapeutic efficacy of allogeneic EBV-specific cytotoxic T cells in vivo. (A) Heat-map representing gene signature of 326 genes observed RNA isolated from in the tumour infiltrating (TILs) CD8+ cells performed using NanoString Immune function panel. The TILS were isolated from SNU719 derived tumour xenograft from six independent mice (LT5-10) after 5 days post a single dose of TI_001 treatment when the tumour size reached 40 mm^2. The gene expression observed in TILS was compared to unstimulated (LT11) and EBV-pepmix stimulated (LT12). (B) Statistical representation comparing the (i) percentage of CD3+CD8+ population; (ii) percentage of CD8+PD1+ population; (iii) percentage of CD8+LAG3+ population; and (iv) percentage of CD8+ TIM3+ population of viable TILS (described in (A)) and compared to unstimulated T cells (T cell therapy). Error bars represent the ±SEM from three independent experiments. P-values were calculated using one-way ANOVA. Statistical representation of SNU719 derived xenograft indicating (C) tumour growth; (D) tumour weight (in gms) at ethical limit of tumour growth; (E) percent survival post T cell, anti-PD1 and combination of T cell and anti-PD1 therapy observed in respective treatment groups compared to mock (PBS) treated control group. The statistical significance of data of tumour weight was analysed by one-way ANOVA. The mice survival was monitored over the indicated period of time and the statistical significance of data was analysed by log-rank test: ns not significant, **p<0.01, ***p<0.001, and ****p<0.0001.
A total of 12-24 female NOD/SCID mice (depending on the experiment) of 7-8 weeks old were used in this study. The mice were subjected to irradiation with 0.8 Gy cobalt-60 and after 4 hours, were subcutaneously injected with 5×10^6 cells of respective EBV-associated cancer cells with a 29-gauge needle. The mice were monitored for tumour growth, weight and body score thrice weekly. Once the tumour was palpable, the mice were randomised into respective groups and were treated with respective dosage of PBS or 20×10^6 tumour HLA matched allogenic EBV-specific T-cells. The tumour size in these mice were measured thrice weekly using the Vernier Calipers. To calculate tumour area the following formula was used: tumour area=B*S where B=largest tumour measurement and S=the smallest, based on two-dimensional caliper measurements as previously described.
Based on these observations, we hypothesized that a combination of checkpoint inhibitor and T cell therapy may offer better therapeutic benefit against EBV-associated tumours.

Compound	IC50 ([1]; 48 h, read-out: IC50 (~50% reduction in cell viability)) [nM]	IC25 value (sub IC50 value) ([1]; concentration chosen for in vitro combination treatment) [nM]	SNU719 gastric cancer outgrowth ([2]; Nivolumab 24 hrs after T cell infusion, combination vs monotherapy and mock-treated groups, p<0.0001)	tumour size (tumour weight) ([2]; combination with T cells vs monotherapy groups)	survival post therapy ([2]; combination with T cells vs monotherapy or mock-treated group, p<0.0001)	better survival in comparison to only T cell treated group ([2]; combination with T cells, p<0.01) [fold]
CC(=O)Nc1cccc(-n2c(=O)n(C3CC3)c(=O)c3c(Nc4ccc(I)cc4F)n(C)c(=O)c(C)c32)c1 [trematinib]	~2500	1000	–	–	–	–
Nivolumab: anti-PD1 antibody	–	–	significantly reduced	significantly reduced tumour size	significantly improved	~2

Reference: patent publication US20230210984A1, “ADOPTIVE IMMUNOTHERAPY” (The Council of the Queensland Institute of Medical Research, priority 2019, published 2023)
